# In US12403139B2, “Methods and compositions for prevention and treatment of cardiac hypertrophy” (University of Hawaii, priority 2010, dated 2025):
# Experiments:
# WT mice exposed to TAC [1] = assay: Pressure overload cardiac hypertrophy by transverse aortic constriction (TAC): heart weight and echocardiography; assay type: in vivo
# Experimental: Transverse Aortic Constriction (TAC). Transverse aortic constriction was performed as described by Rockman, producing left ventricular hypertrophy by constriction of the aorta (Rockman et al., 1994; Rockman et al., 1991). The left side of the chest was depilated with Nair and a baseline 2-D echocardiogram was obtained. Mice were then deeply anesthetized with a mixture of ketamine and xylazine. The transverse aorta between the brachiocephalic and left carotid artery was banded using 6-0 silk ligature around the vessel and a 26 G blunt needle, after which the needle was withdrawn. Sham surgeries were identical apart from the constriction of the aorta.
# Transthoracic echocardiography. Baseline and post TAC transthoracic echocardiography were used to assess changes in mouse heart dimensions and function. Briefly, after two days of acclimatization and depilation, unanesthetized transthoracic echocardiography was performed using a 30-Mhz transducer (Vevo 770, VisualSonics). High quality two-dimensional images and M-mode images of the left ventricle were recorded. Measurements of left ventricular end-diastolic (LVIDd) and end-systolic (LVIDs) internal dimensions were performed by the leading edge to leading edge convention adopted by the American Society of Echocardiography. The left ventricular ejection fraction (% EF) was calculated as (LV Vol; d-LV Vol; s/LV Vol; d×100) (Visualsonics Inc.).
# Osmotic pump installation. Long term (up to 42 day) infusion of drugs can be accomplished by insertion of osmotic pumps without the need for repeated injection. Mice are placed under a low plane of anesthesia with an injection of Ketamine/Xylazine anesthetic (50 mg/10 mg·Kg) intraperitoneally (IP) 10 minutes prior to surgery. A small area between shoulder blades is shaved and sterilized with Povidine swab. A small incision is made in this area and blunt dissected below skin to allow placement of an Alzet osmotic pump (model 2006), previously loaded with the drug of choice under the skin between the shoulder blades where it is inaccessible to the mouse. Several stitches are applied to close the incision. The mouse is placed in regular housing on a warming mat until completely conscious, after which mice are then returned to regular housing room.
# The mice were subjected to pressure overload induced cardiac hypertrophy by TAC while administered 4 mg/kg of BCTC (in 20% wt/vol 2-Hydroxypropyl)-β-cyclodextrin/PBS) throughout the entire experiment using osmotic pumps (Alzet, Model 2006) pumping continuously at a rate of 0.15 ul/hr. The test was limited to ˜42 days (max) by the function of the pumps, as such the experiment was halted at 36 days post TAC, as pumps are installed previous to the TAC to allow recovery before the TAC surgery. […] This protection from dilation of the left ventricle translates to a protection in the function of the heart as measured by ejection fraction (% EF, p<0.05) and fractional shortening (% FS).
# WT mice exposed to TAC [2] = assay: Histological analysis of the heart 36 days post TAC (WGA-Alexa488 and picrosirius red staining); assay type: in vivo; conditions: BCTC treated TAC mice vs vehicle treated TAC mice
# Experimental: Tissue preparation for histology. […] For histology, hearts were perfused with phosphate-buffered saline and 10% formalin in situ, collected immediately, and fixed overnight in 10% formalin at 4° C. Tissues were then cut in a sagittal orientation, embedded in paraffin, mounted on glass slides, and stored until use. Paraffin-embedded sections were stained for the following:
# Collagen: Collagen volume fraction was determined by analysis of picrosirius stained sections. Sections cut to 5 μm thickness were deparaffinized, stained with Weigert's hematoxylin, then stained with picrosirius red (0.1% Sirius Red in picric acid). Sections were subsequently washed and dehydrated before image analysis.
# Cardiomyocyte cross sectional area: Heart sections were deparaffinized and permeabilized, then stained with wheat germ-agglutinin conjugated to Alexa488 (WGA-Alexa488, Invitrogen, W11261) at a concentration of 50 μg/mL to identify sarcolemmal membranes and measure cardiomyocyte cross sectional area (described below).
# Image collection and analysis. […] Fibrosis and cross-sectional cardiomyocyte area were quantified using ImageJ software (NIH). To quantify fibrosis, collagen fibers were highlighted, and the red-stained pixels were counted to determine the percentage of pixels in each field that represented collagen fibers. […]
smiles,measurement,setting,value
"CC(C)(C)c1ccc(NC(=O)N2CCN(c3ncccc3Cl)CC2)cc1 [BCTC, N-(4-tertiarybutylphenyl)-4-(3-chloropyridin-2-yl)tetrahydropyrazine-1(2H)-carboxamide]",fractional shortening (% FS),"WT mice exposed to TAC [1]; TAC mice, 4 mg/kg BCTC by osmotic pump, 36 days post TAC, vs vehicle, p<0.01 (FIG. 8E)",significantly diminished at 36 days post TAC compared to drug-treated mice
same,ejection fraction (% EF),"WT mice exposed to TAC [1]; TAC mice, 4 mg/kg BCTC by osmotic pump, 36 days post TAC, vs vehicle, p<0.05 (FIG. 8D)",significantly diminished at 36 days post TAC compared to drug-treated mice
same,heart weight/body weight ratio,"WT mice exposed to TAC [1]; TAC mice, 4 mg/kg BCTC by osmotic pump, 36 days post TAC, vs vehicle, p=0.035 (FIG. 8A)",significantly greater in vehicle treated WT mice than drug treated mice
same,"left ventricular internal diameter end-diastolic (LVIDd), TAC mice","WT mice exposed to TAC [1]; TAC mice, 4 mg/kg BCTC by osmotic pump, zero to 36 days, vs vehicle, significantly different after 18 days, p<0.001 (FIG. 8C)",significantly smaller LVIDd than the vehicle treated TAC mice
same,LVIDd over time in TAC mice,"WT mice exposed to TAC [1]; TAC mice, 4 mg/kg BCTC by osmotic pump, vehicle mice start increasing diameter at 9 days",the diameter is maintained for the duration of the test
same,"left ventricular internal diameter (LVID,d), sham mice","WT mice exposed to TAC [1]; sham mice, BCTC vs vehicle, echocardiography every 9 days (FIG. 8B)",no difference
same,cardiomyocyte cross sectional area,"WT mice exposed to TAC [2]; p=<0.01, n=100 (FIG. 9A)",significantly smaller myocytes in BCTC treated TAC mice than vehicle treated TAC control mice
same,interstitial collagen (area of collagen staining as a percentage of tissue area),"WT mice exposed to TAC [2]; picrosirius red, p=0.05 (FIG. 9B)",significantly less interstitial collagen in BCTC treated TAC mice than vehicle treated TAC control mice
